The text below walks through data of patent US20140045826A1, “METHODS AND COMPOSITIONS FOR TREATING NEURODEGENERATIVE DISEASES” (ARIAD PHARMACEUTICALS, INC., priority 2011, published 2014).

For series [1] the following is noted: mice and humans; cited from earlier work.
Series [2] is described as follows: phase 1 clinical trial, safety and tolerability.
The target of a further series is ROS (Homo sapiens, UniProt P08922). Description: in vitro kinase assay. The series is classed as biochemical.
The target of the next series is T1, CTK (Homo sapiens, UniProt P42679).
T1 sequence (P42679 1-507): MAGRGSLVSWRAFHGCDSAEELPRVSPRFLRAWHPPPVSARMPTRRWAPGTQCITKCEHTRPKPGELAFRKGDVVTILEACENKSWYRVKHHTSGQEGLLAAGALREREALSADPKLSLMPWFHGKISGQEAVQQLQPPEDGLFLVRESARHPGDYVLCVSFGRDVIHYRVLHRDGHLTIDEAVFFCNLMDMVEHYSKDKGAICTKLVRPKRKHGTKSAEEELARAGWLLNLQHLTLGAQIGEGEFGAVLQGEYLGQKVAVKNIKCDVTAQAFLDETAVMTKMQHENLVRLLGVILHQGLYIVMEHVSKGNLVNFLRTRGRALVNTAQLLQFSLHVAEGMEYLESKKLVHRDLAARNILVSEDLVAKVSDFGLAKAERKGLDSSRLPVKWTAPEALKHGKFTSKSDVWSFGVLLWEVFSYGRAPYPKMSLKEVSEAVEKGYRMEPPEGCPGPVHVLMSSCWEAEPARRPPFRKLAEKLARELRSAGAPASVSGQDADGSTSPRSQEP
Briefly: in vitro kinase assay. The series is classed as biochemical.

In the next series the target is T2, ZAP70 (Homo sapiens, UniProt P43403).
T2 sequence (P43403 1-619): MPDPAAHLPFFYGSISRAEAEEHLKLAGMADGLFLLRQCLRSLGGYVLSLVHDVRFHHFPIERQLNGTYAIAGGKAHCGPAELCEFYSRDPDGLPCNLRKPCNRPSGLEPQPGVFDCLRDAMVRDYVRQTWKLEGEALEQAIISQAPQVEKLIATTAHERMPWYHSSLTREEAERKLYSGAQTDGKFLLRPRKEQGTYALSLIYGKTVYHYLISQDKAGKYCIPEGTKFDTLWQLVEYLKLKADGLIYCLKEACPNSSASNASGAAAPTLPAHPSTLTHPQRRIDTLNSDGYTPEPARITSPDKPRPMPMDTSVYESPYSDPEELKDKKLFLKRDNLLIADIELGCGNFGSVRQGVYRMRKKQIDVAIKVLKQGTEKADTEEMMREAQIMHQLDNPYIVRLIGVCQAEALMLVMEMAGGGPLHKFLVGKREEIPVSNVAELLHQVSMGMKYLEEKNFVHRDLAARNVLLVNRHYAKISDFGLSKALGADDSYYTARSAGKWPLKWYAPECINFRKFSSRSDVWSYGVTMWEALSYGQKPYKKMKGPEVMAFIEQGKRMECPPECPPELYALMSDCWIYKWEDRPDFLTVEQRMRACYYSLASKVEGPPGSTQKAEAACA
Description: in vitro kinase assay. The series is classed as biochemical.

In a further series the target is TYK1 (Homo sapiens, UniProt P29376). Description: in vitro kinase assay. The series is classed as biochemical.
The target of a further series is PGP efflux pump (Homo sapiens, UniProt P08183). Description: substrate for the PGP efflux pump.
The target in a further series is T3, Aurora C (Homo sapiens, UniProt Q9UQB9).
T3 sequence (Q9UQB9 1-309): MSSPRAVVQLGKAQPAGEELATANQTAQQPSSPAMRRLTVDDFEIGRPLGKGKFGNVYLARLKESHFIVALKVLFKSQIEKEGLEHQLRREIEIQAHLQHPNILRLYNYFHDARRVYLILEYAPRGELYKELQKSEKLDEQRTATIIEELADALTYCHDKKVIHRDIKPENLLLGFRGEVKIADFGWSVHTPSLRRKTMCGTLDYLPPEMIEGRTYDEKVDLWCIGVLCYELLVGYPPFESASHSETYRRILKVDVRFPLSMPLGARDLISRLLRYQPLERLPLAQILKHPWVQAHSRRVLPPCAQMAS
Description: in vitro kinase assay. It is filed as biochemical.

A further series addresses T4, ITK (Homo sapiens, UniProt Q08881).
T4 sequence (Q08881 1-620): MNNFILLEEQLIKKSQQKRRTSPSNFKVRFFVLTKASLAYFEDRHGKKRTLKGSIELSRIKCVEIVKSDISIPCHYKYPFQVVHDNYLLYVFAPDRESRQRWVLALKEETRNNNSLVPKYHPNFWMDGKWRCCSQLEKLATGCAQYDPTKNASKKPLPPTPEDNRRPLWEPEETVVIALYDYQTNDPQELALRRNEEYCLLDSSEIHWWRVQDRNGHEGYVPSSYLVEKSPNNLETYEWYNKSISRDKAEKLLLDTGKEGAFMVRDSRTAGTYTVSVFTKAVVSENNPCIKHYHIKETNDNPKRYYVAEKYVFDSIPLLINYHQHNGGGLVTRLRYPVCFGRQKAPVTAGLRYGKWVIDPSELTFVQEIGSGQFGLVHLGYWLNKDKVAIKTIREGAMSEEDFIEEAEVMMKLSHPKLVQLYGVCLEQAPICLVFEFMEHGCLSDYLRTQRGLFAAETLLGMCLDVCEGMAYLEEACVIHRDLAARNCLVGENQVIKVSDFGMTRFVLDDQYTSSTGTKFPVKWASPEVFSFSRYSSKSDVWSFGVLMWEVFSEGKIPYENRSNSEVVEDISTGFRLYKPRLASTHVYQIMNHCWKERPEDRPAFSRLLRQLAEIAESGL
Description: in vitro kinase assay. The series is classed as biochemical.

The target of the next series is mTOR (Homo sapiens, UniProt P42345). Description: in vitro kinase assay. It is filed as biochemical.
The nature of a further series: in vivo. The conditions noted are these: rat, plasma, po, 5 mg/kg.
A further series addresses T5, AXL (Homo sapiens, UniProt P30530).
T5 sequence (P30530 26-894): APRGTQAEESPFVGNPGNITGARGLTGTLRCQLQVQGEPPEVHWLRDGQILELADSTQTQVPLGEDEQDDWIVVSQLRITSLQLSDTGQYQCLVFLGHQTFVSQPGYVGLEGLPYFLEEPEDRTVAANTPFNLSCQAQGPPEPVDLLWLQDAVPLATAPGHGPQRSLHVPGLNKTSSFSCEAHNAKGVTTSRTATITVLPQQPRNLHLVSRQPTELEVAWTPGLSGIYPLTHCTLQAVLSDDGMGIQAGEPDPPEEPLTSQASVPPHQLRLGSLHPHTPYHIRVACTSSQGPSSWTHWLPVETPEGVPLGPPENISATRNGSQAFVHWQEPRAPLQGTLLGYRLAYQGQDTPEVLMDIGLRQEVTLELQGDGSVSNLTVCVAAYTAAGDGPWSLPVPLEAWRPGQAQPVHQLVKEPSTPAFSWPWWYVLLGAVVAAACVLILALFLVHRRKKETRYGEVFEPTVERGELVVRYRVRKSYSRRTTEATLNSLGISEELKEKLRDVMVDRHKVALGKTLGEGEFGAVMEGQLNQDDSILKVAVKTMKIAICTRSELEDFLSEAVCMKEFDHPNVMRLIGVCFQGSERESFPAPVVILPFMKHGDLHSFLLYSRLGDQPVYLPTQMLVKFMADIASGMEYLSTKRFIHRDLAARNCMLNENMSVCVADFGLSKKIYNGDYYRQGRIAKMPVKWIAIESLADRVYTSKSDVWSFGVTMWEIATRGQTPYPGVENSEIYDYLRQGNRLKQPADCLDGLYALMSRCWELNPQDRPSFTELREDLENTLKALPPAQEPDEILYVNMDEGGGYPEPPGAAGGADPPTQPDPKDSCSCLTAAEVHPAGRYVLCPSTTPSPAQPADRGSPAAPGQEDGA
Description: in vitro kinase assay. It is filed as biochemical.

For another series, the target named is PKC8. Description: in vitro kinase assay. It is filed as biochemical.
The next series has as its target IRR (Homo sapiens, UniProt P14616). Description: in vitro kinase assay. It is filed as biochemical.
The next series concerns the target ALK (Homo sapiens, UniProt Q9UM73). Description: in vitro kinase assay. It is filed as biochemical.

pIC50: −log10 of the molar value.

Sequence of PGP efflux pump (P08183 whole entry): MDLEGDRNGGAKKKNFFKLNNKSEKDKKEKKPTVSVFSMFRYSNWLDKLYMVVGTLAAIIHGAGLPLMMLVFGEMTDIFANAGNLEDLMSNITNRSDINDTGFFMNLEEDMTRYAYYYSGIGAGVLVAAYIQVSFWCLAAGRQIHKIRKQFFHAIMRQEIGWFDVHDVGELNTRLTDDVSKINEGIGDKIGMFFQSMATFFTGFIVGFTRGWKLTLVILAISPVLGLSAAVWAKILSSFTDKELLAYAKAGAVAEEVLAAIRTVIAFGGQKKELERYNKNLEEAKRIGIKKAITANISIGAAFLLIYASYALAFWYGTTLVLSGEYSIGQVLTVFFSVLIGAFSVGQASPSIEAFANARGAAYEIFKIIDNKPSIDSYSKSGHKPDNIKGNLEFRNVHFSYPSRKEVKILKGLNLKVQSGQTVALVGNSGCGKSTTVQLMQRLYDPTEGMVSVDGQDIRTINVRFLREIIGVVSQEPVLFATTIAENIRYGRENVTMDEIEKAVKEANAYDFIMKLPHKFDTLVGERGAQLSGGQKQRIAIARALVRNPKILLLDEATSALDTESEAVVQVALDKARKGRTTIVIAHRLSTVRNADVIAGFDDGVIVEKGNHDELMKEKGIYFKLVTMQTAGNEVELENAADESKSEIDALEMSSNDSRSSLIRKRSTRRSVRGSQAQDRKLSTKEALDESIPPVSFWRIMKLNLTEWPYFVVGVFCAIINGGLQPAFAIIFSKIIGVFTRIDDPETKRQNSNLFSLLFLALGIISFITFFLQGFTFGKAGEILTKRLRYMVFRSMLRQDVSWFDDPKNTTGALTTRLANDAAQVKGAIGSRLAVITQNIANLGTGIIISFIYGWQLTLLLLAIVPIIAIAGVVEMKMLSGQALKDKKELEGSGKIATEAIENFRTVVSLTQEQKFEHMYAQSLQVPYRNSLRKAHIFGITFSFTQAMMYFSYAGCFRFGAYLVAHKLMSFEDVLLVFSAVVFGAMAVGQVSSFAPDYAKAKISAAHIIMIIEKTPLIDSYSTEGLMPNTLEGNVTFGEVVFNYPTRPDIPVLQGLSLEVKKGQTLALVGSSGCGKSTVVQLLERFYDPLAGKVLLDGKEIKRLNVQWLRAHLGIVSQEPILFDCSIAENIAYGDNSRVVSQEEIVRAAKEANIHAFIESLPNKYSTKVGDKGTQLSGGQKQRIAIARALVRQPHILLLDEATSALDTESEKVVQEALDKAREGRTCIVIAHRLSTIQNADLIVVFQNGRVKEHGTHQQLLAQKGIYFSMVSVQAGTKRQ
Sequence of ROS (P08922 28-2347): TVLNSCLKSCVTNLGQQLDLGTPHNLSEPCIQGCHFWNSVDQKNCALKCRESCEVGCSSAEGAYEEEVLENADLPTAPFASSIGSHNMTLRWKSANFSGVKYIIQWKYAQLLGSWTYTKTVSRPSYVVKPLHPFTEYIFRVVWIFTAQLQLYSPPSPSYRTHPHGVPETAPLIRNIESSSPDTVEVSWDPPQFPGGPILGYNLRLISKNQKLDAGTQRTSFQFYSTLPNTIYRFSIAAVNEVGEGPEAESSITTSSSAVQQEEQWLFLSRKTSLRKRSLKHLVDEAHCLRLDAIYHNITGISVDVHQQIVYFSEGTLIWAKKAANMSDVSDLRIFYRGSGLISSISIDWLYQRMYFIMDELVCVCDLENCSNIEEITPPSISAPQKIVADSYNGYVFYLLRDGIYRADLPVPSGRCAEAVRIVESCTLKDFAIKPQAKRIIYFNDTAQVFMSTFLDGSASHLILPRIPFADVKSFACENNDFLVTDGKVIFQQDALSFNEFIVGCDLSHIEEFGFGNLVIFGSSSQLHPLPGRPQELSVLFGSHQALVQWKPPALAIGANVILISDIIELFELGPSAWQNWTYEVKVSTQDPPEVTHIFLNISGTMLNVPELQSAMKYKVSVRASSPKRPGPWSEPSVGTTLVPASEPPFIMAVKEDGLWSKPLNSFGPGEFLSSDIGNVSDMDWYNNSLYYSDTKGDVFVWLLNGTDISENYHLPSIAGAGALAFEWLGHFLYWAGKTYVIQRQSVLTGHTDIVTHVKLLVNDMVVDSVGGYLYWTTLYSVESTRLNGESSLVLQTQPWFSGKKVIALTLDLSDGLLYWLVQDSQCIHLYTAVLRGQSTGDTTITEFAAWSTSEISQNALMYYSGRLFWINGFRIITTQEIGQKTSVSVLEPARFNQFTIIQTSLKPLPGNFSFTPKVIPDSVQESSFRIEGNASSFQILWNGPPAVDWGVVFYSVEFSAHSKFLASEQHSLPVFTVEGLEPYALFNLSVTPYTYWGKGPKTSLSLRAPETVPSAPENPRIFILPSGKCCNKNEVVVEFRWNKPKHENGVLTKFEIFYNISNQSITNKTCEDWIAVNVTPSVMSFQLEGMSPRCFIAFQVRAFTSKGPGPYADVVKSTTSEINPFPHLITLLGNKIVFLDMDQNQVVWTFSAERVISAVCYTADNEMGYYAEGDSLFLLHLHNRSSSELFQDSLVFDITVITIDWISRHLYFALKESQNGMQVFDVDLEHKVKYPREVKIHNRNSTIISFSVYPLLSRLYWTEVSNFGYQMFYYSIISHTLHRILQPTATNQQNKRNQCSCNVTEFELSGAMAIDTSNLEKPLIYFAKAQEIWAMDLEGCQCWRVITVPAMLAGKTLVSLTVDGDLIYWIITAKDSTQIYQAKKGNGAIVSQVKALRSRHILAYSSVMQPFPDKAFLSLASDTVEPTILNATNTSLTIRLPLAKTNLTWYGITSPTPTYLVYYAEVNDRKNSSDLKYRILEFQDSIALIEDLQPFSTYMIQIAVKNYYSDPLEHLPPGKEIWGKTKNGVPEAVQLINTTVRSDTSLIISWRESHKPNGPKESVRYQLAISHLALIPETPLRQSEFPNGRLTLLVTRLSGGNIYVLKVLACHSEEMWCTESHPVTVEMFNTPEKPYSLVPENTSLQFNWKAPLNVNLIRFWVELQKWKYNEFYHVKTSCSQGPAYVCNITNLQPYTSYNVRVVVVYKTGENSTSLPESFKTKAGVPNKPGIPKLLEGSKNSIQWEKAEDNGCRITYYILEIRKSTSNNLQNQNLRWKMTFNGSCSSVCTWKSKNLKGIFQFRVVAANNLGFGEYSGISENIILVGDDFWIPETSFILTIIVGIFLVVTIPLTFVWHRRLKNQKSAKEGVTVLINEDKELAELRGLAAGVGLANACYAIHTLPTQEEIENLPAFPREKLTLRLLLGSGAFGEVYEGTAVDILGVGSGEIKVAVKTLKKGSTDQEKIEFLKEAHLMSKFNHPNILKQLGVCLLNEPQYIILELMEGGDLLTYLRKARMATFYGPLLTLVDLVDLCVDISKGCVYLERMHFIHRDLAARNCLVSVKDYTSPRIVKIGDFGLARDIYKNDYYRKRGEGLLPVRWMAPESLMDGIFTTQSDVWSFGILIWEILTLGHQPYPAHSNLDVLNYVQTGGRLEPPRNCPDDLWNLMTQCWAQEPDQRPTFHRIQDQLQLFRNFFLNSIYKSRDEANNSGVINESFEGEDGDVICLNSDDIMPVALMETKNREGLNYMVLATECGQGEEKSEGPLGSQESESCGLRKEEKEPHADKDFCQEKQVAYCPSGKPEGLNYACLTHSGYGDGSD
Sequence of TYK1 (P29376 17-864, species assumed): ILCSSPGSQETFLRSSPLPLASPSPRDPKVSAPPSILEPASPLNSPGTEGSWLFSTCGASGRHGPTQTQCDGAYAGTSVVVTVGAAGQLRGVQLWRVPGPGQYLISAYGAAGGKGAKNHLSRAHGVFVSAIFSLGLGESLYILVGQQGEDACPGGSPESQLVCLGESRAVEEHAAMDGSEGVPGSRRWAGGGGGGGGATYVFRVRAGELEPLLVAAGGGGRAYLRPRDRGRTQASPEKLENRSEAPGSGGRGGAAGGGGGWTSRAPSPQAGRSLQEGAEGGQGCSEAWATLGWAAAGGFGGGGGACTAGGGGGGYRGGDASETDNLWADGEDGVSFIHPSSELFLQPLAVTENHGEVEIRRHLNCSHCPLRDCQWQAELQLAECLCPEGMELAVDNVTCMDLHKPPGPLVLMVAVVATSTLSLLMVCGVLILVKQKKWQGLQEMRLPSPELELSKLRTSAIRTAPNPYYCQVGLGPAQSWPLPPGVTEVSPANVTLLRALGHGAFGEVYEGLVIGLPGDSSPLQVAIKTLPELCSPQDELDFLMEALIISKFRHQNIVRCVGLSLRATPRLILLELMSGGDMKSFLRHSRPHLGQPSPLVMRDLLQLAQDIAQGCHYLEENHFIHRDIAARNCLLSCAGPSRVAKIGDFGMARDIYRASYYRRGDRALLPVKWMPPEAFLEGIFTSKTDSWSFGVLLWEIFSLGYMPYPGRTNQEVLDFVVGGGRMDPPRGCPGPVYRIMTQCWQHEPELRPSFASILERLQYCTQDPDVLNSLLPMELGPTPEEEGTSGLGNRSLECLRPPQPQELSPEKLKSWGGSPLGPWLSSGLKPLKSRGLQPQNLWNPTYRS

Take `Cc1ccc(NC(=O)c2ccc(CN3CCN(C)CC3)cc2)cc1Nc1nccc(-c2cccnc2)n1` [STI-571]: the “penetration of the blood-brain barrier” value in series [1] is “poor penetration of the blood-brain barrier”.
In the case of `Cc1ccc(C(=O)Nc2ccc(CN3CCN(C)CC3)c(C(F)(F)F)c2)cc1C#Cc1cnc2cccnn12` [ponatinib, 3-(Imidazo[1,2-b]pyridazin-3-ylethynyl)-4-methyl-N-(4-((4-methylpiperazin-1-yl)methyl)-3-(trifluoromethyl)phenyl)benzamide], the “dose limiting toxicities (DLTs)” value in series [2] (45 mg cohort) was “a reversible rash was seen with one patient”; in [2] (60 mg cohort), “four patients developed reversible pancreatic related DLT (pancreatitis)”; in series [2] (2 to 30 mg cohorts) it was “no dose limiting toxicities (DLTs) were observed”. The “maximum tolerated dose (MTD)” value in series [2] (patients with refractory hematological cancers, oral, dose escalation 2-60 mg) is 45 mg. For the same molecule, in series [2] (phase 1 patients), the “drug-related adverse events of any grade: anemia” value was 12%. Further, the “drug-related adverse events of any grade: lipase increase” value in series [2] (phase 1 patients) turned out to be 12%. The “drug-related adverse events of any grade: nausea” value in series [2] (phase 1 patients) was found to be 12%. For the same molecule, the “drug-related adverse events of any grade: rash” value in series [2] (phase 1 patients) is 12%. Further, in series [2] (phase 1 patients), the “drug-related adverse events of any grade: thrombocytopenia” value was found to be 25%. In series [2] (phase 1 study conclusion), the tolerability result was “well tolerated”. For the same molecule, the negative logarithm of the IC50 (pIC50) against ROS, against CTK, against ZAP70, on TYK1, against Aurora C and against ITK was less than 6.00 in each case. Besides, the pIC50 against mTOR, at AXL, at PKC8, on IRR and against ALK was less than 6.00 throughout. The “substrate for the PGP efflux pump” value on PGP efflux pump was “poor substrate”. This molecule also displayed a Cmax in the series “in vivo” of 175 ng/mL.
